The text below walks through data of US20250051283A1, “THERAPEUTIC COMPOUNDS AND METHODS” (priority 2023, published 2025).

Read-outs that look alike come from different tables or passages of the source.

One assay addresses EV-D68 2A^pro (Enterovirus D68, UniProt A0A097BW19). Nature of the assay: FRET-based enzymatic assay of EV-D68 2Apro inhibition. It counts as biochemical. The conditions noted are these: for IC50: read-out: Enzymatic inhibitory activity IC50. The method, then: (§1) Protein expression and purification. EV-D68 2A^pro gene from strain US/KY/14-18953 was ordered from Genscript (Piscataway, NJ) in pET28b(+) vector with E. coli codon optimization. 2A^pro gene was subcloned into pE-SUMOstar vector according to the manufacturers protocol. Plasmid encoding WT-2A^pro was transformed into BL21(DE3) competent E. coli cells, and a single colony was picked and used to inoculate 10 mL of L.B. grown supplemented with 50 μg/mL kanamycin at 37° C. at 250 rpm. The 10 mL inoculant was added to 1 L of L.B. with 50 μg/mL kanamycin and grown to an OD600 of 0.8-1.0, cooled to 18° C., then induced using 0.5 mM IPTG. Induced cultures were incubated at 18° C. for an additional 24 h, then harvested and resuspended in lysis buffer (25 mM Tris (pH 7.5); 750 mM NaCl, 2 mM DTT with 0.5 mg/mL lysozyme, 0.5 mM PMSF and 0.02 mg/mL DNase I) and lysed with alternating sonication and French press cycles. The cell debris were removed by centrifugation at 12,000×g for 45 min […]. The supernatant was incubated with Ni-NTA resin for over 2 h at 4° C. on a rotator. The Ni-NTA resin was thoroughly washed with 50 mM imidazole in wash buffer (50 mM Tris (pH 7.5), 150 mM NaCl, and 2 mM DTT); for the SUMO-tagged protein, the protein was directly eluted with 300 mM imidazole; for the nontagged 2A^pro Ni-NTA resin was treated with SUMO Protease 1 to remove the SUMO tag, then 2A^pro was washed off from the column with 10 mM imidazole in wash buffer. The imidazole was removed via dialysis or 10 K molecular weight cut-off centrifugal concentrator spin column. The purity of the protein was confirmed with SDS-PAGE. The protein concentration was determined by classic BCA assay using bovine serum albumin as a standard. EV-D68 3C^pro in pET28b(+) vector was expressed as previously described^10.
(§2) Peptide synthesis. The FRET substrate of EV-D68 2A^pro, Dabcyl-KIRIVNT/GPGFGGE-Edans, was synthesized using the Fmoc solid phase synthesis strategy.
(§3) Enzymatic assays. The reaction buffer contains 50 mM Tris (pH7.0), 150 mM NaCl, 10% Glycerol, and 2 mM DTT, and the reaction was carried out at 30° C. in Cytation 5 imaging reader (Fisher Scientific) with EX360/40-EM460/40 filter. Reactions were monitored every 90 sec. […] The reaction was initiated by adding 20 μM of FRET substrate, and the reaction was monitored for 2 hours and initial velocity was calculated for the first 30 minutes via linear regression.

For a further assay, the system named is EV-D68 US/MO/14-18947. As to the kind of experiment: CPE assay (neutral red) with EV-D68 US/MO/14-18947 in R.D. cells. It is filed as cell-based, Enterovirus D68. Here is the method: Cell lines and viruses. Human rhabdomyosarcoma (R.D., ATCC, CCL-136) cells were maintained at 37° C. in a 5% CO2 atmosphere and cultured in Dulbecco's modified Eagle's medium (DMEM) supplemented with 10% fetal bovine serum (FBS) and 1% penicillin-streptomycin antibiotics. The following reagents were obtained through BEI Resources, NIAID, NIH: Human Enterovirus D68, US/MO/14-18949, NR-49130; Enterovirus D68, US/MO/14-18947, NR-49129; Enterovirus D68, US/IL/14-18952, NR-49131; Enterovirus D68, US/KY/14-18953, NR-49132; Enterovirus D68, US/IL/14-18956, NR-49133.
Antiviral assays. Cells for antiviral assays were seeded and grown overnight at 37° C. in a 5% CO2 atmosphere for ˜90% confluency the next day. For all infections, cells were washed with PBS containing magnesium and calcium and infected with virus diluted in DMEM with 2% FBS and 30 mM MgCl2. Viruses were incubated for at least 1 h at 33° C. in a 5% CO2 atmosphere, followed by the addition of compound as well as 1% penicillin-streptomycin. For CC50 measurements, the experiment was performed similarly but excluded viral infection. For cytopathic effect (CPE) assays, cells were stained with 66 µg/mL neutral red for 2 h and neutral red uptake was measured at absorbance 540 nm using a Multiskan FC Microplate Photometer (ThermoFisher Scientific). The EC50 and CC50 values were calculated from best-fit dose response curves using GraphPad Prism. For plaque reduction assays, an 1.2% avicel microcrystalline cellulose (FMC BioPolymer, Philadelphia, PA) overlay was used and cells were stained after 3 days as previously described^26.

In assay [1] the target is T1, EV-D68 2A^pro (WT-2A^pro, strain US/KY/14-18953, expressed in E. coli BL21(DE3) from pE-SUMOstar vector) (enterovirus D68, UniProt A0A097BW19).
T1 construct: E. coli-codon-optimised gene, pE-SUMOstar, His-SUMO tag (removed with SUMO protease for nontagged form), E. coli BL21(DE3), Ni-NTA; 7JRE is the C107A mutant
As to the kind of experiment: FRET-based enzymatic assay of EV-D68 2A^pro inhibition (FRET substrate Dabcyl-KIRIVNT/GPGFGGE-Edans). It is filed as biochemical. The method, then: FIG. 4. […] Key structural variations compared to telaprevir were highlighted in red. Enzymatic inhibitory activity IC50 value was determined in the FRET-based assay. Antiviral EC50 value was determined in the CPE assay with EV-D68 US/MO/14-18947 in R.D. cells. Cytotoxicity CC50 value was determined using the neutral red uptake method in R.D. cells. The results are the mean±standard deviation of two independent experiments with three repeats in each experiment.
FIG. 5. […] Key structural variations compared to Jun8861 were highlighted in red. Enzymatic inhibitory activity IC50 value was determined in the FRET-based assay. Antiviral EC50 value was determined in the CPE assay with EV-D68 US/MO/14-18947 in R.D. cells. Cytotoxicity CC50 value was determined using the neutral red uptake method in R.D. cells. The results are the mean±standard deviation of two independent experiments with three repeats in each experiment.
as §1, §2, §3

Setting [2] is: Enterovirus D, EVD68, RD, read-out: Antiviral EC50, CPE assay, EV-D68 US/MO/14-18947 in R.D. cells.
Setting [3] is: CPE assay, EV-D68 US/MO/14-18947 in R.D. cells.

Regarding `CCC[C@H](NC(=O)[C@@H]1[C@H]2CCC[C@H]2CN1C(=O)[C@@H](NC(=O)CC1CCCC1)C(C)(C)C)C(=O)C(=O)NC1CC1` [Jun971, (1S,3aR,6aS)-2-((S)-2-(2-cyclopentylacetamido)-3,3-dimethylbutanoyl)-N—((S)-1-(cyclopropylamino)-1,2-dioxohexan-3-yl)octahydrocyclopenta[c]pyrrole-1-carboxamide], the IC50 is 80 to 140 nM at EV-D68 2A^pro and 100 ± 10 nM in assay [1]. Further, in the assay with EV-D68 US/MO/14-18947 (setting [2]), the EC50 was 160 to 750 nM.

`CCC[C@H](NC(=O)[C@@H]1[C@H]2CCC[C@H]2CN1C(=O)[C@@H](NC(=O)NC12CC3CC(CC(C3)C1)C2)C(C)(C)C)C(=O)C(=O)NC1CC1` [Jun1023, (1S)-2-((S)-2-(3-((3R,5R,7R)-adamantan-1-yl)ureido)-3,3-dimethylbutanoyl)-N—((S)-1-(cyclopropylamino)-1,2-dioxohexan-3-yl)octahydrocyclopenta[c]pyrrole-1-carboxamide]: the “enzymatic inhibition, in words, relative to the named comparator” value on EV-D68 2A^pro is “reduced enzymatic inhibition”. In addition, in the assay with EV-D68 US/MO/14-18947 (CPE assay, EV-D68 US/MO/14-18947 in R.D. cells, read-out: Antiviral EC50), the EC50 came out at 700 nM.

Consider `CCC[C@H](NC(=O)[C@@H]1[C@H]2CCC[C@H]2CN1C(=O)OCc1ccccc1)C(=O)C(=O)NC1CC1` [Jun7424, Benzyl (1S,3aR,6aS)-1-(((S)-1-(cyclopropylamino)-1,2-dioxohexan-3-yl)carbamoyl)hexahydrocyclopenta[c]pyrrole-2(1H)-carboxylate], for which, on EV-D68 2A^pro, the IC50 stood at 4350 nM.

For the compound `CCC[C@H](NC(=O)[C@@H]1[C@H]2CCC[C@H]2CN1C(=O)[C@@H](NC(C)=O)C(C)(C)C)C(=O)C(=O)NC1CC1` [Jun8862, (1S,3aR,6aS)-2-((S)-2-acetamido-3,3-dimethylbutanoyl)-N—((S)-1-(cyclopropylamino)-1,2-dioxohexan-3-yl)octahydrocyclopenta[c]pyrrole-1-carboxamide], the half-inhibitory concentration (IC50) at EV-D68 2A^pro turned out to be 940 nM.

On to `CCC[C@H](NC(=O)[C@@H]1[C@H]2CCC[C@H]2CN1C(=O)[C@@H](NC(=O)NC(C)(C)C)C(C)(C)C)C(=O)C(=O)NC1CC1` [Jun9475, (1S,3aR,6aS)-2-((S)-2-(3-(tert-butyl)ureido)-3,3-dimethylbutanoyl)-N—((S)-1-(cyclopropylamino)-1,2-dioxohexan-3-yl)octahydrocyclopenta[c]pyrrole-1-carboxamide], for which the IC50 on EV-D68 2A^pro is 1160 nM.

`CC(C)C[C@H](NC(=O)[C@@H]1[C@H]2CCC[C@H]2CN1C(=O)[C@@H](NC(=O)CC12CC3CC(CC(C3)C1)C2)C(C)(C)C)C(=O)C(=O)NC1CC1` [Jun11389, (1S,3aR,6aS)-2-((S)-2-(2-((3S,5S,7S)-adamantan-1-yl)acetamido)-3,3-dimethyl-butanoyl)-N—((S)-1-(cyclopropylamino)-5-methyl-1,2-dioxohexan-3-yl)octahydro-cyclopenta[c]pyrrole-1-carboxamide]: the “antiviral activity, in words, relative to the named comparator” value in the assay on EV-D68 US/MO/14-18947 (setting [3]) is given as “failed to improve the antiviral potency compared to Jun8861”. This compound also registered a half-inhibitory concentration (IC50) in assay [1] of 260 ± 50 nM.

Turning to `CC(C)[C@H](NC(=O)[C@@H]1[C@H]2CCC[C@H]2CN1C(=O)[C@@H](NC(=O)CC12CC3CC(CC(C3)C1)C2)C(C)(C)C)C(=O)C(=O)NC1CC1` [Jun11718, (1S,3aR,6aS)-2-((S)-2-(2-((3S,5S,7S)-adamantan-1-yl)acetamido)-3,3-dimethylbutanoyl)-N—((S)-1-(cyclopropylamino)-4-methyl-1,2-dioxopentan-3-yl)octahydrocyclopenta[c]pyrrole-1-carboxamide], the “enzymatic inhibition, in words, relative to the named comparator” value on EV-D68 2A^pro is “comparable enzymatic inhibition and antiviral activity as Jun8861”. Moreover, the “antiviral activity, in words, relative to the named comparator” value with EV-D68 US/MO/14-18947 (setting [3]) is “comparable enzymatic inhibition and antiviral activity as Jun8861”.

For the compound `CC(C)(C)[C@H](NC(=O)CC12CC3CC(CC(C3)C1)C2)C(=O)N1C[C@@H]2CCC[C@@H]2[C@H]1C(=O)N[C@@H](CC1CC1)C(=O)C(=O)NC1CC1` [Jun11761, (1S,3aR,6aS)-2-((S)-2-(2-((3S,5S,7S)-adamantan-1-yl)acetamido)-3,3-dimethylbutanoyl)-N—((S)-1-cyclopropyl-4-(cyclopropylamino)-3,4-dioxobutan-2-yl)octahydrocyclopenta[c]pyrrole-1-carboxamide], in the assay on EV-D68 US/MO/14-18947 (setting [3]), the “antiviral activity, in words, relative to the named comparator” value was “failed to improve the antiviral potency compared to Jun8861”. Further, in assay [1], the IC50 was 140 ± 10 nM.

In the case of `CC(C)(C)C(NC(=O)CC12CC3CC(CC(C3)C1)C2)C(=O)N1CC2CCCC2C1C(=O)NC(Cc1ccc(F)cc1)C(=O)C(=O)NC1CC1` [Jun11763, (1S,3aR,6aS)-2-((S)-2-(2-((3S,5S,7S)-adamantan-1-yl)acetamido)-3,3-dimethylbutanoyl)-N—((S)-4-(cyclopropylamino)-1-(4-fluorophenyl)-3,4-dioxobutan-2-yl)octahydrocyclo-penta[c]pyrrole-1-carboxamide], the IC50 at EV-D68 2A^pro is 150 nM. In the assay with EV-D68 US/MO/14-18947 (setting [2]), the EC50 is 190 nM.

On to `CC(C)(C)[C@H](NC(=O)CC12CC3CC(CC(C3)C1)C2)C(=O)N1C[C@@H]2CCC[C@@H]2[C@H]1C(=O)N[C@@H](Cc1c[nH]c2ccccc12)C(=O)C(=O)NC1CC1` [Jun11862, (1S,3aR,6aS)-2-((S)-2-(2-((3S,5S,7S)-adamantan-1-yl)acetamido)-3,3-dimethylbutanoyl)-N—((S)-4-(cyclopropylamino)-1-(1H-indol-3-yl)-3,4-dioxobutan-2-yl)octahydrocyclopenta[c]pyrrole-1-carboxamide], for which the “enzymatic inhibition, in words, relative to the named comparator” value at EV-D68 2A^pro is “comparable enzymatic inhibition and antiviral activity as Jun11385”. For the same compound, in the assay with EV-D68 US/MO/14-18947 (setting [3]), the “antiviral activity, in words, relative to the named comparator” value is “comparable enzymatic inhibition and antiviral activity as Jun11385”.

“(1S)-2-((S)-2-(2-((3S,5S,7S)-adamantan-1-yl)acetamido)-3,3-dimethylbutanoyl)-N-((2S)-4-(cyclopropylamino)-3-hydroxy-4-oxo-1-(thiophen-3-yl)butan-2 yl)octahydrocyclopenta[c]pyrrole-1-carboxamide [Jun11818]”: on EV-D68 2A^pro, the “enzymatic inhibition, in words, relative to the named comparator” value is “comparable enzymatic inhibition and antiviral activity as Jun11385”. The “antiviral activity, in words, relative to the named comparator” value in the assay on EV-D68 US/MO/14-18947 (setting [3]) was “comparable enzymatic inhibition and antiviral activity as Jun11385”.

As a reminder, the IC50 is the concentration that inhibits the measured activity by half.
